According to US20060014776A1, “Antitumoral compounds” (Instituto Biomar S.A., priority 2004, published 2006):

How the values were obtained:
[1] = test system: C38 (colon adenocarcinoma); assay: Disk diffusion soft agar colony formation assay, C38; assay type: cell-based, murine
From the text: (§1) An in vitro cell-based assay was employed to identify solid tumor selectivity for compound IV. The differential cytotoxicity (Valeriote, F.; Grieshaber, C. K.; Media, J.; Pietraszkiewicz, H.; Hoffman, J.; Pan, M.; McLaughlin, S. J. Exp. Ther. Oncol. 2002, 2, 228-236) is expressed by observing a zone differential between any solid tumor cell (Colon38, ColonH116, Lung H125) and either leukemia cells (L1210 or CEM) or normal cells (CFU-GM). A sample is designated as “solid tumor selective” if (zone units of solid tumor—normal cells or leukemia cells) is greater than 250 units.
(§2) Colon 38 gives a good monodispersed cell suspension with mechanical disruption from a mouse tumor. […]
(§3) All of the human cancer cell lines are maintained in cell culture. […] The cells are passed through an 18-gauge needle twice and the monodispersed suspension counted. […]
(§4) A volume of 15 μl of each sample is dropped onto a 6.5 mm disk (Baxter filter disks). […] The plates are incubated for 7-10 days (depending upon the cell type) and examined by an inverted stereo-microscope (10×) for measurement of the zone of inhibition measured from the edge of the filter disk to the beginning of normal-sized colony formation. […] At some dilution, quantifiable cytotoxicity is invariably obtained.
(§5) • a Measured in zone units: 200 zone units=6 mm. […]

[2] = test system: HCT-116 cells in SCID mice; assay: In vivo therapeutic trials; settings: for time taken for tumor volume to reach 4-times the initial volume: control 7 days
Method: For the in vivo studies HCT-116 cells in SCID mice will be used. Individual mouse body weights for each experiment are within 5 g and all mice are over 17 g at the start of therapy. The mice are supplied food and water ad libidum. The animals are pooled, implanted subcutaneously with 10^7 cultured cells, and pooled again before distribution to treatment and control groups. Chemotherapy is started when the tumors reach a measurable size (about 150 mm^3). Initially, a 1 hour intravenous infusion will be given and the whole animal toxicity and therapeutic effect correlated with the pharmacology studies described above. Dosage levels are usually closely spaced (2-fold increments or 0.5 decrements). All drugs will be administered intravenously. Mice are killed when their tumors reach 1500 mm^3. Tumor weights are estimated from 2-dimensional caliper measurements done twice a week: Tumor Weight (mg)=(a×b^2)/2 • where a and b are the tumor length and width, respectively, in mm.
For this in vivo study with compound IV, 4 mice were in the control group, 4 in the 2 mg/ml and 1 in the 3 mg/ml groups.
The data were analyzed in terms of time taken for tumor volume to reach 4-times the initial volume. For control tumors this was 7 days, for the 2 mg/ml (0.5 mg/mouse; 25 mg/kg) dose, this was 10 days; and for the 3 mg/ml (0.75 mg/mouse; […]), this was 15 days. Thus, at the maximum tolerated dose there was a T/C of about 50%.

H116 human colon cells = assay: Clonogenic assay; assay type: cell-based
Method: Concentration- and time-survival studies will be carried out against HCT-116 cells. HCT-116 cells are seeded at 200 to 20,000 cells in 60 mm dishes. Drug is added to the medium (RPMI+10% FBS) at concentrations of 1 mg/ml and 10-fold dilutions thereof. […] The dishes are incubated for 7 days, media removed and the colonies stained with methylene blue. Colonies containing 50 cells or more are counted. The results are normalized to an untreated control. Plating efficiency for the untreated cells is about 90%. Repeat experiments are carried out to define the cell survival range between 100% and […]. Subsequently, a concentration is chosen that yields a survival of 10^−2 at 24 hr and time-survival studies carried out from 0 to 48 hr. Both concentration- and time-survival curves are constructed so that AUC values can be calculated. A comparison of tumor to normal provides a theoretical basis for determining whether a compound might be active in therapeutic trials in vivo.

Pharmacokinetics = assay type: in vivo, male SCID mice bearing H116 tumors; settings: 18.5 mg/kg
Method: Compound IV was administered at 18.5 mg/kg to male SCID mice bearing H116 tumors.
By 24 h after drug administration, the concentration of compound IV is about 100 ng/ml.

[3] = test system: L1210 (lymphocytic leukemia); assay: Disk diffusion soft agar colony formation assay, L1210; assay type: cell-based, murine; settings: 7.5 μg/ml
From the text: as §1, §2, §3, §4, §5

H125 (lung) = assay: Disk diffusion soft agar colony formation assay, H125; assay type: cell-based, human
From the text: as §1, §2, §3, §4, §5

CEM (leukemia) = assay: Disk diffusion soft agar colony formation assay, CEM; assay type: cell-based, human
From the text: as §1, §2, §3, §4, §5

[4] = test system: CFU-GM-h (colony-forming unit-granulocyte macrophage; normal hematopoietic); assay: Disk diffusion soft agar colony formation assay, CFU-GM-h; assay type: cell-based, human; settings: 7.5 μg/ml
From the text: as §1, §2, §3, §4, §5

H116 (colon) = assay: Disk diffusion soft agar colony formation assay, H116; assay type: cell-based, human
From the text: as §1, §2, §3, §4, §5

[5] = mouse, in vivo
Method: In this dose calculation stage, the projected starting dose is based primarily on the solubility of the new compound. Potential doses are calculated on the basis of blood volume and total body water in mice.
The starting dose is selected on the basis of solubility of the compound in biologically compatible solvents, and the potency derived from in vitro studies.
To start, one normal SCID mouse is dosed intravenously with the solubilized/formulated compound via a one-hour infusion at a maximum dose of 20 mg/mL. The volume infused is 0.25 ml over the one-hour period. If the animal survives the dosing period, clinical signs are noted, and the animal is sacrificed at two hours post infusion and blood collected for subsequent analytical determinations. Two additional SCID mice are then similarly infused with the compound, one being sacrificed at the end of infusion and blood collected and analyzed for drug concentration. The third animal is housed for 2 weeks to ascertain survival, and then euthanized. During the two-week observation period, the animal will be monitored for clinical signs of distress and euthanized if moribund. The dosing data and pharmacologic information (estimate of half-life) from these three animals will guide the subsequent time-course study by approximating a tolerable dose and clearance of the agent. […]

[6] = test system: CFU-GM-m (colony-forming unit-granulocyte macrophage; normal hematopoietic); assay: Disk diffusion soft agar colony formation assay, CFU-GM-m; assay type: cell-based, murine; settings: 7.5 μg/ml
From the text: as §1, §2, §3, §4, §5

## COc1cc(-c2ccnc3c2C(=O)c2ncc(C)cc2C3=O)ccc1OCCCN [Compound IV]
[1]; 1.9 μg/ml
  zone of inhibition C38: 100 zone units
[1]; 7.5 μg/ml
  zone of inhibition C38: 550 zone units
[2]; 2 mg/ml (0.5 mg/mouse; 25 mg/kg) dose
  time taken for tumor volume to reach 4-times the initial volume: 10 days
[2]; 3 mg/ml (0.75 mg/mouse; 38.5 mg/kg)
  time taken for tumor volume to reach 4-times the initial volume: 15 days
[2]; at the maximum tolerated dose
  T/C: about 50%
H116 human colon cells; 7-day continuous exposure
  concentration at which a therapeutic effect would be obtained: ~0.2 µg/mL
H116 human colon cells; maintained for a 24 h period
  concentration at which a therapeutic effect would be obtained: ~10 µg/mL
Pharmacokinetics; over at least a 2-h period
  concentration attained in the plasma: approximately 1 μg/ml
  concentration attained in the tumor: approximately 1 μg/ml
Pharmacokinetics; male, SCID, mouse, in vivo, 24 h after drug administration, read-out: concentration of compound IV
  concentration at 24 h: ~100 ng/mL
[3]
  zone of inhibition L1210: 500 zone units
H125 (lung); 1.9 μg/ml
  zone of inhibition H125: 600 zone units
H125 (lung); 7.5 μg/ml
  zone of inhibition H125: >1000 zone units
CEM (leukemia); 1.9 μg/ml
  zone of inhibition CEM: 150 zone units
CEM (leukemia); 7.5 μg/ml
  zone of inhibition CEM: 550 zone units
[4]
  zone of inhibition CFU-GMh: 650 zone units
H116 (colon); 1.9 μg/ml
  zone of inhibition H116: 350 zone units
H116 (colon); 7.5 μg/ml
  zone of inhibition H116: 800 zone units
[5]; SCID
  Lethal Dose: 50 mg/kg
[5]; 40 mg/kg
  observation after injection: survived but looked shaky right after injection
[6]
  zone of inhibition CFU-GMm: 650 zone units
